Source: article PMC4864329, “In vitro and in vivo efficacy, toxicity, bio-distribution and resistance selection of a novel antibacterial drug candidate” (Scientific Reports, 2016)
In brackets after ≈: the same amount, converted by molar mass. Like-named read-outs stand apart in the source and are kept apart here. Positions of bridges follow the written chain, without caps; N, C: chain ends. Non-standard residues stand in square brackets, D forms with d. Residues, ends and D or L forms follow the SMILES beside them. Chains are numbered I, II in the order given. βAla = NCCC(=O)O

What was measured:
[1] = system: Klebsiella pneumoniae clinical isolates; type: cell-based; details: clinical isolates
Description: Minimum inhibitory concentrations (MICs) of SET-M33L were determined against 76 clinical isolates of Pseudomonas aeruginosa and 73 clinical isolates of Klebsiella pneumoniae. The isolates were selected on the basis of their resistance phenotypes and major antibiotic resistance determinants, including resistance to colistin and carriage of carbapenemase-encoding genes (Table 1 and supplemental Tables S1 and S2).
MIC values were determined against a large collection of clinical isolates. Most isolates were collected during routine susceptibility testing procedures at the Clinical Microbiology Unit of Careggi University Hospital in Florence, while specific isolates were selected according to their phenotype or genotype (e.g. carriage of carbapenemase-encoding genes, inclusion in epidemic bacterial clones, resistance to colistin) from a collection of isolates already available at Department of Medical Biotechnologies, University of Siena. Detailed features of each strain, including relevant resistance phenotypes and genotypes were reported in supplemental Tables S1 and S2. MICs were determined in triplicate using a standard microdilution assay according to the guidelines of the Clinical and Laboratory Standards Institute[34]. SET-M33L was assayed using concentrations in the range 0.09–11.2 μM (0.5–64 μg/mL); testing was performed using a bacterial inoculum of 5 × 10^4 CFU/well prepared in cation-supplemented Mueller-Hinton broth (MHB) (Becton Dickinson, Franklin Lakes, NJ, USA) in a final volume of 100 μl. Results were recorded after 18–20 h of incubation at 35 °C.

[2] = system: K. pneumoniae strain KKBO-1; type: cell-based, Klebsiella pneumoniae; details: K. pneumoniae KKBO-1
Description: Tests were performed by plating cells on SET-M33L- or colistin-containing MHB.

[3] = system: BALB/c mice; experiment: Acute toxicity in mice, single i.v. dose; type: in vivo, mouse
Description: As preliminary toxicity evaluation we first compared the acute toxicity of SET-M33L and SET-M33L-PEG with that of colistin. Animals (10 BALB/c mice/group) were injected i.v. with different amounts of SET-M33L, SET-M33L-PEG or colistin, in single dose, in the range 5–40 mg/kg (Fig. 4), and were monitored for 4 days after inoculation of the peptide. […] At 40 mg/Kg SET-M33L and SET-M33L-PEG produced similar toxicity profiles with strong signs of toxicity and 90–100% mortality after 96 hours. Colistin produced strong signs of toxicity already at 10 mg/Kg: 50% mortality immediately after inoculation and 70% mortality after 24 hours. Colistin induced sudden death in 100% of mice at 20 and 40 mg/Kg.
Mice were treated by a single i.v. administration of different amounts (40, 20, 10, 5 mg/Kg) of SET-M33L, SET-M33L-PEG or colistin sulfate (Sigma-Aldrich, C4461). Signs of toxicity were checked four times a day by visual inspection. A toxicity score was assigned for the following signs: wiry coat and poor motility = mild signs; very wiry coat, abundant lachrymation and poor motility even under stimulation = manifest signs. Animals were monitored for 4 days after inoculation of the peptide. Mice were weighed every day from arrival to the last day of the experiment. Moribund animals were killed humanely to avoid unnecessary distress.

[4] = system: human lymphocytes; details: positive control
Description: Gene toxicity was assessed by testing the potential of SET-M33L to induce micronuclei in human lymphocytes. Human lymphocytes in whole blood culture, stimulated to divide by addition of PHA 48 hours prior to treatment, were exposed to SET-M33L for 3 hours with and without exogenous metabolic activation (S9 mix), and for 20 hours without S9 mix.
Analysis of micronucleated cells was based on the criteria described by Fenech and Morley[37] and Fenech[38]. […] Human lymphocytes from informed donors were pooled and diluted with HML media (RPMI 1640, supplemented with 10% fetal calf serum, 0.2 IU/ml sodium heparin, 20 IU/ml penicillin, 20 μg/ml streptomycin and 2.0 mM L-glutamine). […] Cultures were established from the prepared (pooled) sample and dispensed as 5 ml aliquots (in sterile universal containers) so that each culture contained blood (0.4 ml), HML media (4.5 ml) and PHA solution (0.1 ml). The cultures were then incubated at 37 °C, and the cells were resuspended (twice daily) by gentle inversion.
Lymphocyte cultures were incubated for approximately 48 hours after stimulation with PHA, before addition of SET-M33L; controls were appropriately diluted with vehicle. S9 homogenate was present in appropriate cultures at a final concentration of 2% v/v. Before treatment, all cultures were centrifuged and resuspended in the required volume of fresh medium, taking treatment volume and S9 mix volume into account. SET-M33L preparations were added to cultures at 10% v/v. Cultures were incubated at 37 °C for 3 or 20 hours.
The cells were centrifuged and the medium replaced with fresh medium. Cytochalasin B, at a final concentration of 6 μg/ml, was then added to all cultures. The cultures were incubated for a further 17 hours until the scheduled harvest time.
The cells were harvested by centrifugation at 500 g for 5 minutes. […] The prepared slides were examined by fluorescence microscopy. The incidences of mononucleate, binucleate and polynucleate cells were assessed per culture per 1000 binucleate cells. […]

Question: How did the MIC [1] turn out when `CC[C@H](C)[C@H](NC(=O)[C@H](CCCCN)NC(=O)[C@@H](N)CCCCN)C(=O)N[C@@H](CCCNC(=N)N)C(=O)N[C@H](C(=O)N[C@@H](CCCNC(=N)N)C(=O)N[C@@H](CC(C)C)C(=O)N[C@@H](CO)C(=O)N[C@@H](C)C(=O)NCCCC[C@H](NC(=O)[C@H](C)NC(=O)[C@H](CO)NC(=O)[C@H](CC(C)C)NC(=O)[C@H](CCCNC(=N)N)NC(=O)[C@@H](NC(=O)[C@H](CCCNC(=N)N)NC(=O)[C@@H](NC(=O)[C@H](CCCCN)NC(=O)[C@@H](N)CCCCN)[C@@H](C)CC)C(C)C)C(=O)NCCCC[C@H](NC(=O)[C@H](CCCCNC(=O)[C@H](C)NC(=O)[C@H](CO)NC(=O)[C@H](CC(C)C)NC(=O)[C@H](CCCNC(=N)N)NC(=O)[C@@H](NC(=O)[C@H](CCCNC(=N)N)NC(=O)[C@@H](NC(=O)[C@H](CCCCN)NC(=O)[C@@H](N)CCCCN)[C@@H](C)CC)C(C)C)NC(=O)[C@H](C)NC(=O)[C@H](CO)NC(=O)[C@H](CC(C)C)NC(=O)[C@H](CCCNC(=N)N)NC(=O)[C@@H](NC(=O)[C@H](CCCNC(=N)N)NC(=O)[C@@H](NC(=O)[C@H](CCCCN)NC(=O)[C@@H](N)CCCCN)[C@@H](C)CC)C(C)C)C(=O)NCCC(=O)O)C(C)C` [SET-M33L] (I: H-KKIRVRLSAKK[βAla]-OH / II: H-KKIRVRLSAK / III: H-KKIRVRLSA / IV: H-KKIRVRLSA; amide I:10-IV:C, I:11-II:C, II:10-III:C) was run?
Answer: Its MIC is greater than 64 µg/mL.

Question: What about the MIC [2] of the same compound?
Answer: The MIC was 0.35 µM (≈ 1.64 µg/mL).

Question: And the mortality ([3]; single i.v. dose 40 mg/Kg, after 96 hours)?
Answer: Its mortality is 90–100%.

Question: What about the “lethality and signs of toxicity” value ([3]; single i.v. dose up to 20 mg/kg, monitored 4 days, 10 BALB/c mice/group) of the same compound?
Answer: The value was “not lethal and no signs of toxicity were observed”.

Question: Which “Mean of binucleate cells containing micronuclei per 1000 cells” value (shortened to “Mean … per 1000 cells”) ([4]; 3h + S9, 10 μg/ml) does the source give for `O=P1(N(CCCl)CCCl)NCCCO1` (stereo not shown) [CPA, Cyclophosphamide] here?
Answer: Its value is 17.0 per 1000 cells.

Question: Which “Mean … per 1000 cells” value ([4]; 3h − S9, 0.2 μg/ml) does the source give for `CO[C@@]12[C@H](COC(N)=O)C3=C(C(=O)C(C)=C(N)C3=O)N1C[C@@H]1N[C@@H]12` [MMC, Mitomycin C] here?
Answer: Its value is 28.0 per 1000 cells.

Question: What about the “Mean … per 1000 cells” value ([4]; 20h − S9, 0.05 μg/ml) of the same compound?
Answer: The value was 22.5 per 1000 cells.
